The values that follow come from ChEMBL document CHEMBL4028801, “A multifactorial approach to hepatobiliary transporter assessment enables improved therapeutic compound development” (Toxicol Sci, 2013).

As a reminder, the IC50 is the midpoint of a concentration-inhibition curve.

SMILES strings stand for the structures. Where a name gives a salt, the structure may show the parent alone.

One experiment concerns the target Bile salt export pump (Homo sapiens, UniProt O95342). Nature of the experiment: Inhibition of human BSEP overexpressed in Sf9 cell membrane vesicles assessed as uptake of [3H]-taurocholate in presence of ATP measured after 15 to 20 mins by membrane vesicle transport assay. The class given is ADME, cell-based.
Experiment [1] deals with ATP-binding cassette sub-family C member 2 (Homo sapiens, UniProt Q92887). Nature of the experiment: Inhibition of human MRP2 overexpressed in Sf9 cell membrane vesicles assessed as uptake of [3H]-estradiol-17beta-D-glucuronide in presence of ATP and GSH measured after 20 mins by membrane vesicle transport assay.
ATP-binding cassette sub-family C member 2, sequence (Q92887 whole entry): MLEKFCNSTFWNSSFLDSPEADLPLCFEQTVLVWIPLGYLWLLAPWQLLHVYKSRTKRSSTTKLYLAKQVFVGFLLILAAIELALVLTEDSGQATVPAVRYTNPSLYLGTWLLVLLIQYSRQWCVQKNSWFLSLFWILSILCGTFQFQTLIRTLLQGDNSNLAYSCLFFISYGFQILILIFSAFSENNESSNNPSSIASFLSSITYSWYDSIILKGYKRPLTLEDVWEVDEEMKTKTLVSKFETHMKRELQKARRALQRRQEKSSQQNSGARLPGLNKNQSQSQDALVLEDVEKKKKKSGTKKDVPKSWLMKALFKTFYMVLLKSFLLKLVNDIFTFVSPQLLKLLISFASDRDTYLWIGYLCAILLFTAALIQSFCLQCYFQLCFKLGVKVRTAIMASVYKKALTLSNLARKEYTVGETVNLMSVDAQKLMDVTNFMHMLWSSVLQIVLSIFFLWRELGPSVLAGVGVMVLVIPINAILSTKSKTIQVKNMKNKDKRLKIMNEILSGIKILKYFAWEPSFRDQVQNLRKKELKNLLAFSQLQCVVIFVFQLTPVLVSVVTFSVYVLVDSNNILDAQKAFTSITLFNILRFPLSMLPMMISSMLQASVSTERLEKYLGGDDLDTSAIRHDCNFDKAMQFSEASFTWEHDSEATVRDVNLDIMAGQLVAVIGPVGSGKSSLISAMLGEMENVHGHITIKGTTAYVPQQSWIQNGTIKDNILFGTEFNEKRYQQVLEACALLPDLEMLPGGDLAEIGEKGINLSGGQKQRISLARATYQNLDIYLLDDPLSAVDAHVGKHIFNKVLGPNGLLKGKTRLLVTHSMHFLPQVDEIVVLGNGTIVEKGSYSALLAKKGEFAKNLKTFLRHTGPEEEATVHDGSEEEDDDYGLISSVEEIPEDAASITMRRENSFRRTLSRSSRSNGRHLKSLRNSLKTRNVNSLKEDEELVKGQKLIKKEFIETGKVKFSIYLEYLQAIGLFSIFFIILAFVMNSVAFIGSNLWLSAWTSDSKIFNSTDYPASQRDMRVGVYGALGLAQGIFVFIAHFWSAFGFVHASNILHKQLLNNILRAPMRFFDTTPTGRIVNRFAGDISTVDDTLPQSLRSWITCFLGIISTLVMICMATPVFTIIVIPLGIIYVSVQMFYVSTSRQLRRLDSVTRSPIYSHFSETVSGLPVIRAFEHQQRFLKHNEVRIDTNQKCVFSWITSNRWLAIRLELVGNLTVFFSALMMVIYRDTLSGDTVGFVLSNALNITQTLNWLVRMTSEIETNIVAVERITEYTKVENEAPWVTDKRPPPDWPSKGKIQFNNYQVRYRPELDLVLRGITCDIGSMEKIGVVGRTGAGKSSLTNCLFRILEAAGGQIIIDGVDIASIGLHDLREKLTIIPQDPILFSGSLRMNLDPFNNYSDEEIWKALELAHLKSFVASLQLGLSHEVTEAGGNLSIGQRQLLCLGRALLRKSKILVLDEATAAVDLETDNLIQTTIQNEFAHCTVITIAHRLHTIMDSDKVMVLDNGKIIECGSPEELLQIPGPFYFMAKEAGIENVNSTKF
Experiment [2] deals with ATP-binding cassette sub-family C member 3 (Homo sapiens, UniProt O15438). Nature of the experiment: Inhibition of human MRP3 overexpressed in Sf9 insect cell membrane vesicles assessed as uptake of [3H]-estradiol-17beta-D-glucuronide in presence of ATP and GSH measured after 10 mins by membrane vesicle transport assay. The class given is ADME, cell-based.
ATP-binding cassette sub-family C member 3, sequence (O15438 whole entry): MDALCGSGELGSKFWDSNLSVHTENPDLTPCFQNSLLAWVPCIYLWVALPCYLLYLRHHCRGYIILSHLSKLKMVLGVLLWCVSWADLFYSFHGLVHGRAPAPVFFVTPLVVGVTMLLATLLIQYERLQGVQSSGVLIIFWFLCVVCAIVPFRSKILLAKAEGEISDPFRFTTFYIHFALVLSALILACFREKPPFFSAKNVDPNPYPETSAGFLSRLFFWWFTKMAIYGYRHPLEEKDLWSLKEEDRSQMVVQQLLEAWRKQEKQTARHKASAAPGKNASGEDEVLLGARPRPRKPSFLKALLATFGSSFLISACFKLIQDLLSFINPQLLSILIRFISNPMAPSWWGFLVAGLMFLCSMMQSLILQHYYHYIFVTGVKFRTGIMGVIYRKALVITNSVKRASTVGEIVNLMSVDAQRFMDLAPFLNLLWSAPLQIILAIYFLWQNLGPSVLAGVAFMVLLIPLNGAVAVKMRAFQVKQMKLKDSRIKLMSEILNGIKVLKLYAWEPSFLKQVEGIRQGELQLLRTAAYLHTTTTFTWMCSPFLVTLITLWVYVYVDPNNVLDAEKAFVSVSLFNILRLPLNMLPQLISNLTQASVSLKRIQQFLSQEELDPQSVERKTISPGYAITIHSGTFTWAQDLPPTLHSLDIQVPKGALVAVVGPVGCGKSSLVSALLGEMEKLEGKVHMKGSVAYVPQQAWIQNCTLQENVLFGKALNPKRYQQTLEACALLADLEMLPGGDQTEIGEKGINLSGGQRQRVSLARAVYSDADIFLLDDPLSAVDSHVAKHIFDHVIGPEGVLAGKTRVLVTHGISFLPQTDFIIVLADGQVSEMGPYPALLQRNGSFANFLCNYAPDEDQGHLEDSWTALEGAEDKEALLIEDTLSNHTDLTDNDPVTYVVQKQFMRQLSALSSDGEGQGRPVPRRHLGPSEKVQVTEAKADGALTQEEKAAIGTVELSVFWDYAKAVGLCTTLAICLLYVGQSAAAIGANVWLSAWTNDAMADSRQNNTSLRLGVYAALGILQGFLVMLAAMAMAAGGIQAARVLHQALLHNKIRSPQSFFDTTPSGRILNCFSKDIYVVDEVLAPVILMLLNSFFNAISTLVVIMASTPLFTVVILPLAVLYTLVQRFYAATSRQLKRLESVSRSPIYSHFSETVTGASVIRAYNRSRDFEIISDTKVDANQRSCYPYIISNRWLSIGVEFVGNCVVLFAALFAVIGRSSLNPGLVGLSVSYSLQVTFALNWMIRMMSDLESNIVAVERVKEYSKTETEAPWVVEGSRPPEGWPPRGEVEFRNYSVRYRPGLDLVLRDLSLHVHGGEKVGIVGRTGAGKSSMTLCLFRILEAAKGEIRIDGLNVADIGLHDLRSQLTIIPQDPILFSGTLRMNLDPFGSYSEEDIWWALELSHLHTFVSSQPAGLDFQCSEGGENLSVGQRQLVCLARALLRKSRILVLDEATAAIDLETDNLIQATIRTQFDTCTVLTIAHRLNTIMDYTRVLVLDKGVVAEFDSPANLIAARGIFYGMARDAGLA
The target of experiment [3] is T1, ATP-binding cassette sub-family C member 4 (Homo sapiens, UniProt O15439).
T1 sequence (O15439 whole entry): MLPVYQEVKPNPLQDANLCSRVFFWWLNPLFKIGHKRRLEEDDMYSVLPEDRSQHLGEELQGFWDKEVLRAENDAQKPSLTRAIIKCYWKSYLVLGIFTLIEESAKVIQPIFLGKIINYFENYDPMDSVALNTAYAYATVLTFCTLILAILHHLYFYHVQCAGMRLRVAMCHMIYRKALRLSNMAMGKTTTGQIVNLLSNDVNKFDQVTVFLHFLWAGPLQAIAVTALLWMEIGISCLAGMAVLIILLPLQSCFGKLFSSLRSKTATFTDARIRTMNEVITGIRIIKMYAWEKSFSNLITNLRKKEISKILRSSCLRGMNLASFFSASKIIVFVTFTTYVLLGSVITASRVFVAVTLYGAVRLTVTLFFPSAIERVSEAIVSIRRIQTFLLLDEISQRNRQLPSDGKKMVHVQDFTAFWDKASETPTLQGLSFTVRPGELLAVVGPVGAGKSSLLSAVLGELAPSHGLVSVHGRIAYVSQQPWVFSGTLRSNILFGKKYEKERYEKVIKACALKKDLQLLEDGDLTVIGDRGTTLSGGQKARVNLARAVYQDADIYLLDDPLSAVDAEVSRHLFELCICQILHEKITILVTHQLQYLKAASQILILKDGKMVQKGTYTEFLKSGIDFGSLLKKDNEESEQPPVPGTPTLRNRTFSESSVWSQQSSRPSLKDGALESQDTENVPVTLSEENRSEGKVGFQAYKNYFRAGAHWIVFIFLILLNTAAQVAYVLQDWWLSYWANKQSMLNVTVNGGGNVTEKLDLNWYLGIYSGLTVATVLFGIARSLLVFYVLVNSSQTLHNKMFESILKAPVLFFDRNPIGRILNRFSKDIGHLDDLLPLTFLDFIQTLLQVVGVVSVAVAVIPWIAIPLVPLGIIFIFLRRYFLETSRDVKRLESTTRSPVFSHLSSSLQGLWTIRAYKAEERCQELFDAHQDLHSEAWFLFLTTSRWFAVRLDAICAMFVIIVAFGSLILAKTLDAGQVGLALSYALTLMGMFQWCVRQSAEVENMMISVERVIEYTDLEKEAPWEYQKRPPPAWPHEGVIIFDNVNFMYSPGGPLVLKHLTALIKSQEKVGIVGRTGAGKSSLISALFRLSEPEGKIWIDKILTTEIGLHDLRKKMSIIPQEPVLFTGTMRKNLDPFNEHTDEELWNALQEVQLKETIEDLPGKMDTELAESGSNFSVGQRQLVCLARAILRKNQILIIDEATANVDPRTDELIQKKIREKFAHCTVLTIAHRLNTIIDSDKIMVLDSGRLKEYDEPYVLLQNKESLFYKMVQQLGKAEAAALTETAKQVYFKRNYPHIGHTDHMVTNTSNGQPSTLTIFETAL
Nature of the experiment: Inhibition of human MRP4 overexpressed in Sf9 cell membrane vesicles assessed as uptake of [3H]-estradiol-17beta-D-glucuronide in presence of ATP and GSH measured after 20 mins by membrane vesicle transport assay. Format: ADME, cell-based.

Bile salt export pump, sequence (O95342 whole entry): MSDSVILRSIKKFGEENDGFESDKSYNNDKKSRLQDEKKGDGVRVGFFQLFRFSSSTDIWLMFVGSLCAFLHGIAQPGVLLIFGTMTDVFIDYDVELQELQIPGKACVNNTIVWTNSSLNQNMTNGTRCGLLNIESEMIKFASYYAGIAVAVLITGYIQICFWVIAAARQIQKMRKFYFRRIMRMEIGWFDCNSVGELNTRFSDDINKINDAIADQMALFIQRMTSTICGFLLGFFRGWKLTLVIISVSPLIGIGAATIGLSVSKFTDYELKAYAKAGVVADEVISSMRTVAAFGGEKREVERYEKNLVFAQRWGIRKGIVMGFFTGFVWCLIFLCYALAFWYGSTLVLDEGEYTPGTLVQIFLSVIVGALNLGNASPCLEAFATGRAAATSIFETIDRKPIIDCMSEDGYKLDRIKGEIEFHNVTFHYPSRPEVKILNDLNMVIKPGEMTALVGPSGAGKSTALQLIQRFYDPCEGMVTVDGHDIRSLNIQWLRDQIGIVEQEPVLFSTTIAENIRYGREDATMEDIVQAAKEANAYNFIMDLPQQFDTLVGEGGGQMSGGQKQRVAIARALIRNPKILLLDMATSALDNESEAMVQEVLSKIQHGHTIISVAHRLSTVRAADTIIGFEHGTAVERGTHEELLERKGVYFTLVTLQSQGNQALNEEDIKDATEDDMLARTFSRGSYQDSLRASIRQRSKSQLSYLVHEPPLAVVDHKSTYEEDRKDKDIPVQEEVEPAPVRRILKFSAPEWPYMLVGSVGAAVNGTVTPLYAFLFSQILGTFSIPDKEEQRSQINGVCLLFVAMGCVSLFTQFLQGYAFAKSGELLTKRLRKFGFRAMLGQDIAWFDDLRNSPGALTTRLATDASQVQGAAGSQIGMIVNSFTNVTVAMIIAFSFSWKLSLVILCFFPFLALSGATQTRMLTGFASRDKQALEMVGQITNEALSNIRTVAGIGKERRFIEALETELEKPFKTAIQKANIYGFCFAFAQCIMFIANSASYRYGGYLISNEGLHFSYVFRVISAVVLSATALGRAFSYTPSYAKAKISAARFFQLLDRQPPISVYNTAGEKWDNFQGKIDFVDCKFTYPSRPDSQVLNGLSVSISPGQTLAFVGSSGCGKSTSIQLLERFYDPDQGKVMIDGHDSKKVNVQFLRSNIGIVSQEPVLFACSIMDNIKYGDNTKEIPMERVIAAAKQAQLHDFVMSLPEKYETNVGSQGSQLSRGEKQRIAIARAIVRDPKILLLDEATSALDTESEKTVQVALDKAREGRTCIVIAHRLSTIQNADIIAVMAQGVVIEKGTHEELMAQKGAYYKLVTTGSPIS

Turning to `C=C1CC[C@@]2(O)[C@H]3Cc4ccc(O)c5c4[C@@]2(CCN3CC2CC2)[C@H]1O5`, the IC50 (on Bile salt export pump; in experiment [1]; in experiment [2]; in experiment [3]) was over 133 µM throughout.
Turning to `C[C@@](Cc1ccc(O)c(O)c1)(NN)C(=O)O` [CARBIDOPA ANHYDROUS], the IC50 (on Bile salt export pump; in experiment [1]; in experiment [2]; in experiment [3]) was over 133 µM throughout.
As to `C[C@@H](O[C@H]1OCCN(Cc2n[nH]c(=O)[nH]2)[C@H]1c1ccc(F)cc1)c1cc(C(F)(F)F)cc(C(F)(F)F)c1` [APREPITANT], the IC50 (on Bile salt export pump; in experiment [1]; in experiment [2]; in experiment [3]) was over 133 µM throughout.
As for `CNCCC=C1c2ccccc2CCc2ccccc21` [NORTRIPTYLINE], the IC50 (at Bile salt export pump; in experiment [1]; in experiment [2]; in experiment [3]) was over 133 µM in each case.
As to `NCC(CC(=O)O)c1ccc(Cl)cc1` (stereo unspecified) [BACLOFEN], the IC50 (on Bile salt export pump; in experiment [1]; in experiment [2]; in experiment [3]) was over 133 µM in each case.
On to `CC[C@H](C)C(=O)O[C@H]1C[C@H](O)C=C2C=C[C@H](C)[C@H](CC[C@@H](O)C[C@@H](O)CC(=O)O)[C@H]21` [PRAVASTATIN SODIUM], for which the IC50 was over 133 µM on Bile salt export pump, over 133 µM in experiment [1], 125 µM in experiment [2] and over 133 µM in experiment [3].
In the case of `Cc1ccc(S(=O)(=O)NC(=O)NN2CC3CCCC3C2)cc1` (stereo unspecified) [GLICLAZIDE], the IC50 (at Bile salt export pump; in experiment [1]; in experiment [2]; in experiment [3]) was over 133 µM in each case.
On to `CC1(C)[C@H](C(=O)O)N2C(=O)C[C@H]2S1(=O)=O` [SULBACTAM], for which the IC50 (at Bile salt export pump; in experiment [1]; in experiment [2]; in experiment [3]) was over 133 µM throughout.
As to `COC[C@@H](NC(C)=O)C(=O)NCc1ccccc1` [LACOSAMIDE], the IC50 (at Bile salt export pump; in experiment [1]; in experiment [2]; in experiment [3]) was over 133 µM in each case.
Consider `Clc1cccc(N2CCNCC2)c1` [CHLOROPHENYLPIPERAZINE], for which the IC50 (at Bile salt export pump; in experiment [1]; in experiment [2]; in experiment [3]) was over 133 µM each time.
Regarding `CCCCc1ncc(/C=C(\Cc2cccs2)C(=O)O)n1Cc1ccc(C(=O)O)cc1` [EPROSARTAN], the IC50 was over 133 µM at Bile salt export pump, 57.9 µM in experiment [1], 6.65 µM in experiment [2] and over 133 µM in experiment [3].
Take `C=CCN1CC[C@]23c4c5ccc(O)c4O[C@H]2C(=O)CC[C@@]3(O)[C@H]1C5` [NALOXONE]: the IC50 (at Bile salt export pump; in experiment [1]; in experiment [2]; in experiment [3]) was over 133 µM each time.
Consider `Nc1ccn([C@@H]2O[C@H](CO)[C@@H](O)C2(F)F)c(=O)n1` [GEMCITABINE HYDROCHLORIDE], for which the IC50 (at Bile salt export pump; in experiment [1]; in experiment [2]; in experiment [3]) was over 133 µM throughout.
With `COc1cccc2c1C(=O)c1c(O)c3c(c(O)c1C2=O)C[C@@](O)(C(=O)CO)C[C@@H]3O[C@H]1C[C@H](N)[C@@H](O)[C@H](C)O1` [EPIRUBICIN HYDROCHLORIDE], the IC50 (at Bile salt export pump; in experiment [1]; in experiment [2]; in experiment [3]) was over 133 µM throughout.
As to `c1cc(CN2CCCNCCNCCCNCC2)ccc1CN1CCCNCCNCCCNCC1` [PLERIXAFOR], the IC50 (at Bile salt export pump; in experiment [1]; in experiment [2]; in experiment [3]) was over 133 µM in each case.
Consider `Nc1ncn([C@H]2C[C@H](O)[C@@H](CO)O2)c(=O)n1` [DECITABINE], for which the IC50 (on Bile salt export pump; in experiment [1]; in experiment [2]; in experiment [3]) was over 133 µM in each case.
Consider `NC[C@H]1O[C@H](O[C@H]2[C@H](O)[C@@H](O[C@H]3O[C@H](CO)[C@@H](O)[C@H](N)[C@H]3O)[C@H](N)C[C@@H]2N)[C@H](O)[C@@H](O)[C@@H]1O` [KANAMYCIN], for which the IC50 (on Bile salt export pump; in experiment [1]; in experiment [2]; in experiment [3]) was over 133 µM each time.
`Nc1cc(-c2ccncc2)c[nH]c1=O` [INAMRINONE]: the IC50 (on Bile salt export pump; in experiment [1]; in experiment [2]; in experiment [3]) was over 133 µM in each case.
With `COc1cc([C@@H]2c3cc4c(cc3[C@@H](O[C@@H]3O[C@@H]5CO[C@@H](c6cccs6)O[C@H]5[C@H](O)[C@H]3O)[C@H]3COC(=O)[C@H]23)OCO4)cc(OC)c1O` [TENIPOSIDE], the IC50 at Bile salt export pump was over 133 µM; in experiment [1] it was over 133 µM; in experiment [2], 20.6 µM; in experiment [3], 34.9 µM.
Consider `COc1ccc2cc([C@H](C)C(=O)O)ccc2c1` [NAPROXEN], for which the IC50 (at Bile salt export pump; in experiment [1]; in experiment [2]; in experiment [3]) was over 133 µM each time.
For `CC[C@]1(O)C[C@@H]2CN(CCc3c([nH]c4ccccc34)[C@@](C(=O)OC)(c3cc4c(cc3OC)N(C)[C@H]3[C@@](O)(C(=O)OC)[C@H](OC(C)=O)[C@]5(CC)C=CCN6CC[C@]43[C@@H]65)C2)C1` [VINBLASTINE], the half-inhibitory concentration (IC50) was over 133 µM on Bile salt export pump, over 133 µM in experiment [1], over 133 µM in experiment [2] and 35.1 µM in experiment [3].
For `Cc1nccn1CC1CCc2c(c3ccccc3n2C)C1=O` (stereo unspecified) [ONDANSETRON], the half-inhibitory concentration (IC50) (at Bile salt export pump; in experiment [1]; in experiment [2]; in experiment [3]) was over 133 µM throughout.
As to `CCOC(=O)[C@H](CCc1ccccc1)N[C@@H](C)C(=O)N1CCC[C@H]1C(=O)O` [ENALAPRIL MALEATE], the half-inhibitory concentration (IC50) (on Bile salt export pump; in experiment [1]; in experiment [2]; in experiment [3]) was over 133 µM in each case.
As to `Nc1nc(Cl)nc2c1ncn2[C@H]1C[C@H](O)[C@@H](CO)O1` [CLADRIBINE], the IC50 (at Bile salt export pump; in experiment [1]; in experiment [2]; in experiment [3]) was over 133 µM each time.
As for `COc1ccc(C(CN(C)C)C2(O)CCCCC2)cc1` (stereo unspecified) [VENLAFAXINE], the IC50 (on Bile salt export pump; in experiment [1]; in experiment [2]; in experiment [3]) was over 133 µM in each case.
On to `C[C@H]1C[C@H]2[C@@H]3CCC4=CC(=O)C=C[C@]4(C)[C@@]3(F)[C@@H](O)C[C@]2(C)[C@@]1(O)C(=O)CO` [BETAMETHASONE], for which the IC50 (on Bile salt export pump; in experiment [1]; in experiment [2]; in experiment [3]) was over 133 µM throughout.
As for `C=CCc1ccccc1OCC(O)CNC(C)C` (stereo unspecified) [ALPRENOLOL], the IC50 (on Bile salt export pump; in experiment [1]; in experiment [2]; in experiment [3]) was over 133 µM in each case.
With `CC[C@H]1OC(=O)[C@H](C)[C@@H](O[C@H]2C[C@@](C)(OC)[C@@H](O)[C@H](C)O2)[C@H](C)[C@@H](O[C@@H]2O[C@H](C)C[C@H](N(C)C)[C@H]2O)[C@](C)(O)C[C@@H](C)CN(C)[C@H](C)[C@@H](O)[C@]1(C)O` [AZITHROMYCIN], the IC50 (at Bile salt export pump; in experiment [1]; in experiment [2]; in experiment [3]) was over 133 µM each time.
Turning to `O=C(NC[C@H]1CN(c2ccc(N3CCOCC3=O)cc2)C(=O)O1)c1ccc(Cl)s1` [RIVAROXABAN], the IC50 (at Bile salt export pump; in experiment [1]; in experiment [2]; in experiment [3]) was over 133 µM throughout.
